According to PubChem BioAssay AID1259408 (Genetic Toxicology Data Bank (GENE-TOX), 2018):
Active and inactive are the calls of the source. How the calls were made is not given here.

Tested on: GENE-TOX genotoxicity assays, various organisms and cells
Test: GENE-TOX mutagenicity studies
Conditions: for call: Assay Type: In vivo carcinogenicity studies
Excerpt: GENE-TOX provides genetic toxicology (mutagenicity) test data from expert peer review of open scientific literature for more than 3,000 chemicals from the United States Environmental Protection Agency (EPA). GENE-TOX was established to select assay systems for evaluation, review data in the scientific literature, and recommend proper testing protocols and evaluation procedures for these systems.
GENE-TOX covers the years 1991 - 1998. It is no longer updated.
This is an archive assay for GENE-TOX mutagenicity studies.

[1] = Species/Cell Type: Chinese hamster lung (V79) cells, Assay Type: Forward gene mutation at the HPRT or ouabain locus, Assay Code: V79+, Evaluation Type: Evaluation A (Pre-1980)
[2] = Species/Cell Type: Drosophila melanogaster, Assay Type: Sex-linked recessive lethal gene mutation, Assay Code: SRL+, Evaluation Type: Evaluation A (Pre-1980)
[3] = Species/Cell Type: Drosophila melanogaster, Sex: Male, Assay Type: Heritable translocation test, chromosome aberrations, Assay Code: DHTT, Evaluation Type: Evaluation A (Pre-1980)
[4] = Species/Cell Type: Escherichia coli WP2, Assay Type: Tryptophan reverse gene mutation, Assay Code: WP2+, Evaluation Type: Evaluation A (Pre-1980)
[5] = Species/Cell Type: Human, Assay Type: Sister-chromatid exchange (SCE) in vitro, Assay Code: SC1+, Evaluation Type: Evaluation B (Post-1980)
[6] = Species/Cell Type: Nonhuman, Assay Code: CCG+L, Evaluation Type: Evaluation A (Pre-1980)
[7] = Species/Cell Type: Nonhuman, Assay Type: Sister-chromatid exchange (SCE) in vitro, Assay Code: SC2+D, Dose Response: With dose response, Evaluation Type: Evaluation B (Post-1980)
[8] = Species/Cell Type: Salmonella typhimurium (one or more of the five standard strains: TA98, TA100, TA1535, TA1537, and TA1538), Assay Type: Histidine reverse gene mutation, Ames assay, Assay Code: SAL+, Evaluation Type: Evaluation A (Pre-1980)
[9] = Species/Cell Type: Salmonella typhimurium (one or more of the five standard strains: TA98, TA100, TA1535, TA1537, and TA1538), Assay Type: Histidine reverse gene mutation, Ames assay, Assay Code: SALT, Evaluation Type: Evaluation A (Pre-1980)
[10] = Species/Cell Type: Saccharomyces cerevisiae, Assay Type: Forward gene mutation, Assay Code: YEF+, Evaluation Type: Evaluation A (Pre-1980)
[11] = Species/Cell Type: Nonhuman, Assay Code: CCG+, Evaluation Type: Evaluation A (Pre-1980)
[12] = Species/Cell Type: Saccharomyces cerevisiae, Assay Type: Mitotic recombination or gene conversion, Assay Code: YEC-, Evaluation Type: Evaluation A (Pre-1980)
[13] = Species/Cell Type: Salmonella typhimurium (one or more of the five standard strains: TA98, TA100, TA1535, TA1537, and TA1538), Assay Type: Histidine reverse gene mutation, Ames assay, Assay Code: SAL+*, Activation: With metabolic activation, Evaluation Type: Evaluation A (Pre-1980)

With `O=C1[C@H]2CC=CC[C@H]2C(=O)N1SC(Cl)(Cl)Cl` the mutagenic call (Species/Cell Type: Aspergillus nidulans, Assay Type: Aneuploidy, chromosome aberrations, Assay Code: ASN-, Evaluation Type: Evaluation A (Pre-1980)) was “inactive; negative”, the mutagenic call (Species/Cell Type: Aspergillus nidulans, Assay Type: Mitotic recombination, Assay Code: ASG+, Evaluation Type: Evaluation A (Pre-1980)) was “active; positive” and the mutagenic call (Species/Cell Type: Bacillus subtilis (H17 vs M45), Assay Type: Rec-assay, spot test, DNA effects (bacterial DNA repair), Assay Code: REW+, Evaluation Type: Evaluation A (Pre-1980)) was “active; positive”. The mutagenic call [1] was “active; positive”, the mutagenic call (Species/Cell Type: Chinese hamster ovary (CHO) cells, Assay Type: Forward gene mutation at the HPRT locus, Assay Code: CHO+, Evaluation Type: Evaluation B (Post-1980)) was “active; positive” and the mutagenic call [2] was “active; positive”. For the same molecule, the mutagenic call [3] was “no conclusion”, the mutagenic call [4] was “active; positive” and the mutagenic call (Species/Cell Type: Escherichia coli WP2 UVRA, Assay Type: Tryptophan reverse gene mutation, Assay Code: WPU+/-*, Activation: With metabolic activation, Evaluation Type: Evaluation A (Pre-1980)) was “inactive; positive without activation, negative with activation”. For the same molecule, the mutagenic call (Species/Cell Type: Escherichia coli polA (W3119 vs P3478), Assay Type: Rec-assay, DNA effects (bacterial DNA repair), Assay Code: RE1+, Evaluation Type: Evaluation A (Pre-1980)) was “active; positive”, the mutagenic call (Species/Cell Type: Human diploid fibroblasts, Assay Type: Unscheduled DNA synthesis (UDS) in vitro, DNA effects, Assay Code: UDH-, Evaluation Type: Evaluation A (Pre-1980)) was “inactive; negative” and the mutagenic call (Species/Cell Type: Human lymphocytes, Assay Type: Sister-chromatid exchange (SCE) in vitro, Assay Code: SCL+, Evaluation Type: Evaluation B (Post-1980)) was “active; positive”. The mutagenic call [5] was “active; positive”, the mutagenic call (Species/Cell Type: Mammalian polychromatic erythrocytes, Assay Type: Micronucleus test, chromosome aberrations, Assay Code: MNT+, Evaluation Type: Evaluation B (Post-1980)) was “active; positive” and the mutagenic call (Species/Cell Type: Mouse, Sex: Male, Assay Type: Heritable translocation test, chromosome aberrations, Assay Code: HTT-, Evaluation Type: Evaluation A (Pre-1980)) was “inactive; negative”. For the same molecule, the call [6] was “active; positive”, the mutagenic call [7] was “active; positive” and the mutagenic call (Species/Cell Type: Rodents, Sex: Male, Assay Type: Dominant lethal test, Assay Code: DLT+, Evaluation Type: Evaluation A (Pre-1980)) was “active; positive”. The mutagenic call (Species/Cell Type: Saccharomyces cerevisiae, Assay Type: Mitotic recombination or gene conversion, Assay Code: YEC+, Evaluation Type: Evaluation A (Pre-1980)) was “active; positive”, the mutagenic call (Species/Cell Type: Saccharomyces cerevisiae, Assay Type: Mitotic recombination or gene conversion, Assay Code: YEH+, Evaluation Type: Evaluation A (Pre-1980)) was “active; positive” and the mutagenic call [8] was “active; positive”. The mutagenic call (Species/Cell Type: Salmonella typhimurium, Serratia marcesens, Assay Type: Forward and reverse gene mutation, host-mediated assay, Assay Code: HM2+, Evaluation Type: Evaluation A (Pre-1980)) was “active; positive” and the mutagenic call (Species/Cell Type: Salmonella typhimurium, Assay Type: Forward and reverse gene mutation, body fluid assay, Assay Code: BFU-, Evaluation Type: Evaluation A (Pre-1980)) was “inactive; negative”.
In the case of `COc1ccc2c(ccc3c4c(ccc32)C(=O)CC4)c1`, the mutagenic call [9] is reported as “no conclusion”.
With `CCCCS(=O)(=O)OC` the mutagenic call (Species/Cell Type: Glycine max (soybean), Assay Type: Gene mutation, Assay Code: GLM+, Evaluation Type: Evaluation A (Pre-1980)) was “active; positive”.
For `CC(=O)N(C)N=O`, the mutagenic call [2] was “active; positive”, the mutagenic call [3] was “no conclusion” and the mutagenic call [10] was “active; positive”. The mutagenic call (Species/Cell Type: Saccharomyces cerevisiae, Assay Type: Reverse gene mutation, Assay Code: YER+, Evaluation Type: Evaluation A (Pre-1980)) was “active; positive”.
With `CC(Br)CBr` (centres undefined) the mutagenic call [2] was “active; positive”.
In the case of `CCOC(=O)COc1ccc(Br)cc1CSC(=N)N`, the mutagenic call (Species/Cell Type: Saccharomyces cerevisiae, Assay Type: Reverse gene mutation, Assay Code: YERT, Evaluation Type: Evaluation A (Pre-1980)) is reported as “no conclusion”.
`Cc1c2ccccc2c(CO)c2ccc3c(c12)C=C[C@@H](O)[C@@H]3O` was tested, and the call [6] was “active; positive”.
For `Cc1c2ccccc2cc2c3c(ccc12)[C@@H](O)[C@H](O)C=C3`, the mutagenic call [1] was “active; positive” and the call [6] was “active; positive”.
With `Cc1ccccc1O` the mutagenic call (Species/Cell Type: Allium cepa, Assay Type: Chromosome aberrations, Assay Code: ALCT, Evaluation Type: Evaluation A (Pre-1980)) was “no conclusion”, the mutagenic call (Species/Cell Type: Human lymphocytes, Assay Type: Sister-chromatid exchange (SCE) in vitro, Assay Code: SCLT, Evaluation Type: Evaluation B (Post-1980)) was “no conclusion” and the mutagenic call [5] was “active; positive”. The mutagenic call (Species/Cell Type: Nonhuman, Assay Type: Sister-chromatid exchange (SCE) in vivo, Assay Code: SC3T, Evaluation Type: Evaluation B (Post-1980)) was “no conclusion”.
With `NN` the mutagenic call (Species/Cell Type: Drosophila melanogaster, Assay Type: Sex-linked recessive lethal gene mutation, Assay Code: SRLT, Evaluation Type: Evaluation A (Pre-1980)) was “no conclusion”, the call [11] was “active; positive” and the mutagenic call [7] was “active; positive”. The mutagenic call [10] was “active; positive” and the mutagenic call (Species/Cell Type: Vicia faba, Assay Type: Chromosome aberrations, Assay Code: VIC+, Evaluation Type: Evaluation A (Pre-1980)) was “active; positive”.
In the case of `c1cc2cccc3c4cccc5cccc(c(c1)c23)c54`, the mutagenic call (Species/Cell Type: Chinese hamster lung (V79) cells, Assay Type: Forward gene mutation, host-mediated assay, Assay Code: HMG-, Evaluation Type: Evaluation A (Pre-1980)) is reported as “inactive; negative” and the mutagenic call (Species/Cell Type: Nonhuman, Assay Type: Sister-chromatid exchange (SCE) in vivo, Assay Code: SC3-, Evaluation Type: Evaluation A (Pre-1980)) is reported as “inactive; negative”.
With `Nc1ccc2c(c1)C(=O)c1ccccc1C2=O` the call [11] was “active; positive”.
In the case of `CNC(=O)Nc1nc2ccccc2s1`, the mutagenic call [12] is reported as “inactive; negative”.
With `Nc1nc(-c2ccc([N+](=O)[O-])o2)cs1` the mutagenic call [4] was “active; positive”, the mutagenic call (Species/Cell Type: Escherichia coli WP2 UVRA, Assay Type: Tryptophan reverse gene mutation, Assay Code: WPU-, Evaluation Type: Evaluation A (Pre-1980)) was “inactive; negative” and the mutagenic call [7] was “active; positive”. For the same molecule, the mutagenic call [8] was “active; positive”.
With `O=O` the mutagenic call [1] was “active; positive”.
`Cc1cc2c(c3ccc4ccccc4c13)CCC2C` (centres undefined) was tested, and the mutagenic call [13] was “active; positive”.
For `Nc1nncs1`, the mutagenic call (Species/Cell Type: Drosophila melanogaster, Assay Type: Aneuploidy, sex chromosome gain, chromosome aberrations, Assay Code: DAG+M, Evaluation Type: Evaluation A (Pre-1980)) was “active; positive”, the mutagenic call (Species/Cell Type: Drosophila melanogaster, Assay Type: Aneuploidy, whole sex chromosome loss, chromosome aberrations, Assay Code: DAC+M, Evaluation Type: Evaluation A (Pre-1980)) was “active; positive” and the mutagenic call [3] was “no conclusion”.
For `CCNc1nc(Cl)nc(NCC)n1` (tested in a mixture with another compound), the mutagenic call [12] was “inactive; negative”.
`CCOC(=O)CC(SP(=O)(OC)OC)C(=O)OCC` (centres undefined) was tested, and the call (Species/Cell Type: Nonhuman, Assay Code: CCG-, Evaluation Type: Evaluation A (Pre-1980)) was “inactive; negative” and the mutagenic call [7] was “active; positive”.
`S=C1NCCCN1` was tested, and the mutagenic call (Species/Cell Type: Mammalian polychromatic erythrocytes, Assay Type: Micronucleus test, chromosome aberrations, Assay Code: MNTT, Evaluation Type: Evaluation B (Post-1980)) was “no conclusion”.
In the case of `CC1OC1C` (centres undefined), the mutagenic call (Species/Cell Type: Neurospora crassa, Assay Type: Reverse gene mutation, Assay Code: NER+, Evaluation Type: Evaluation A (Pre-1980)) is reported as “active; positive”.
`O=C(O)C1CCCCN1[N+](=O)[O-]` (centres undefined) was tested, and the mutagenic call [9] was “no conclusion”.
In the case of `CCCCN(CCCC)N=O`, the mutagenic call [1] is reported as “active; positive”, the mutagenic call (Species/Cell Type: Chinese hamster ovary (CHO) cells, Assay Type: Forward gene mutation at the HPRT locus, Assay Code: CHO+*, Activation: With metabolic activation, Evaluation Type: Evaluation B (Post-1980)) is reported as “active; positive” and the mutagenic call (Species/Cell Type: Human diploid fibroblasts, Assay Type: Unscheduled DNA synthesis (UDS) in vitro, DNA effects, Assay Code: UDHT, Evaluation Type: Evaluation A (Pre-1980)) is reported as “no conclusion”. For the same molecule, the mutagenic call (Species/Cell Type: Mammalian polychromatic erythrocytes, Assay Type: Micronucleus test, chromosome aberrations, Assay Code: MNTT, Evaluation Type: Evaluation A (Pre-1980)) was “no conclusion”, the mutagenic call (Species/Cell Type: Mouse, Sex: Male, Assay Type: Sperm morphology, Assay Code: SPI-, Evaluation Type: Evaluation A (Pre-1980)) was “inactive; negative” and the mutagenic call (Species/Cell Type: Nonhuman, Assay Type: Chromosome aberrations in vitro, Assay Code: CY&-, Evaluation Type: Evaluation A (Pre-1980)) was “inactive; negative”. For the same molecule, the call [11] was “active; positive”, the mutagenic call [7] was “active; positive” and the mutagenic call (Species/Cell Type: Nonhuman, Assay Type: Sister-chromatid exchange (SCE) in vitro, Assay Code: SC2T, Evaluation Type: Evaluation A (Pre-1980)) was “no conclusion”. The mutagenic call (Species/Cell Type: Nonhuman, Assay Type: Sister-chromatid exchange (SCE) in vivo, Assay Code: SC3+, Evaluation Type: Evaluation B (Post-1980)) was “active; positive” and the mutagenic call [13] was “active; positive”.
For `CC(=O)c1ccc([N+](=O)[O-])[nH]1`, the mutagenic call [8] was “active; positive”.
